# Test results: US12239711B2, “Cereblon ligands and bifunctional compounds comprising the same” (Arvinas Operations, Inc., priority 2014, dated 2025)
# Tested on: androgen receptor (AR)
# Assay: AR ELISA assay in LNCaP and/or VCaP cells
# Assay type: cell-based
# Settings: 5 hours
# Procedure: 4. AR ELISA Assay Protocol for Table 6
# Compounds were evaluated in this assay in LNCaP and/or VCaP cells utilizing similar protocols. The protocols used with VCaP cells are described below. The androgen receptor ELISA assay was performed using PathScani AR Sandwich ELISA (Cell Signaling Catalog #12850) according to the following assay steps:
# VCaP cells were seeded at 40,000 cells/well at a volume of 100 μL/well in VCaP assay medium [Phenol red free RPMI (Gibco Cat #11835-030); 5% Charcoal Stripped (Dextran treated) FBS (Omega Scientific, Cat #FB-04); 1% penstrep (Life Technologies, Gibco Cat #: 10378-016)] in Corning 3904 plates. The cells were incubated for a minimum of 3 days. Cells were dosed with PROTACs diluted in 0.01% DMSO and the drug treatment was allowed for 5 hours.
# AR ELISA (Cell Signaling) was performed as follows: 1× Cell Signaling Cell lysis buffer was made (Catalogue #9803; comes with the kit). Media from the treated wells is aspirated, and 100 μL 1× cell lysis buffer/well is added. The cells were placed on a shaker for 10 minutes at 4° C. Twenty microliters of lysate was transferred to 100 μl of Diluent in ELISA plate (0.15 μg/ml-0.075 μg/ml). The lysate-diluent mixture was shaken for 30 minutes at 37° C. Allow mouse AR antibody, anti-mouse antibody, TMB, and STOP solution to come to room temperature. The 1× ELISA buffer included in kit was made and loaded in the reservoir. Media from the plates was discarded, the ELISA plate tapped hard on paper towel, and washed 4×200 μl ELISA wash buffer using a plate washer.
# One-hundred (100) μL/well of mouse AR detection Ab was added; the plates were covered and shaken at 37° C. for 1 hour; media was discarded from the plates, the plates were tapped on a paper towel, washed 4× with 200 μL ELISA wash buffer with a plate washer.
# One-hundred (100) μL/well of anti-mouse—HRP conjugated Ab (comes with the kit) was added; the plates were covered and shaken at 37° C. for 30 minutes; the TMB reagent was allowed to come to room temperature; the media was discard from the plate, the plates were tapped on paper towl, washed 4× with 200 μL of ELISA wash buffer; the plates were tapped the plates on paper towl. One-hundred (100) μL of TMB was added and the plates shaken for 2 minutes—while watching for color development. One-hundred (100) μL Stop solution was added when light blue color developed. Plates were shaken and read at 450 nm.
# Progression of prostate cancer in patients treated with anti-androgen therapy usually involves one of several mechanisms of enhanced Androgen Receptor (AR) signaling, including increased intratumoral androgen synthesis, increased AR expression and AR mutations. PROTACs (PROteolysis TArgeting Chimera), which use bi-functional molecules that simultaneously bind a target of choice and an E3 ligase, cause ubiquitination via induced proximity and degradation of the targeted, pathological protein. As opposed to traditional target inhibition, which is a competitive process, degradation is a progressive process. As such, it is less susceptible to increases in endogenous ligand, target expression, or mutations in the target. Thus, this technology appears to be ideal for addressing the mechanisms of AR resistance in patients with prostate cancer. Data was analyzed and plotted using GraphPad Prism software.
SMILES,DC50 [nM],AR Dmax
"COc1cc(N2CCN(CC3CCN(c4ccc(C(=O)N[C@H]5CC[C@H](Oc6ccc(C#N)c(Cl)c6)CC5)nn4)CC3)CC2)cc2c1C(=O)N(C1CCC(=O)NC1=O)C2=O (mixture of isomers) [compound 32, rac-N-((1r,4r)-4-(3-chloro-4-cyanophenoxy)cyclohexyl)-6-(4-((4-(2-(2,6-dioxopiperidin-3-yl)-7-methoxy-1,3-dioxoisoindolin-5-yl)piperazin-1-yl)methyl)piperidin-1-yl)pyridazine-3-carboxamide]",< 1,–
"COc1cc(N2CCN(CC3CCN(c4ncc(C(=O)N[C@H]5C(C)(C)[C@H](Oc6ccc(C#N)c(Cl)c6)C5(C)C)cn4)CC3)CC2)cc2c1C(=O)N(C1CCC(=O)NC1=O)C2=O (mixture of isomers) [compound 33, rac-N-((1r,3r)-3-(3-chloro-4-cyanophenoxy)-2,2,4,4-tetramethylcyclobutyl)-2-(4-((4-(2-(2,6-dioxopiperidin-3-yl)-7-methoxy-1,3-dioxoisoindolin-5-yl)piperazin-1-yl)methyl)piperidin-1-yl)pyrimidine-5-carboxamide]",< 1,–
"CC1(C)[C@H](NC(=O)c2ccc(N3CCC(CN4CCN(c5ccc6c(c5)C5(CC5)N(C5CCC(=O)NC5=O)C6=O)CC4)CC3)cc2)C(C)(C)[C@H]1Oc1ccc(C#N)c(Cl)c1 (mixture of isomers) [compound 34, rac-N-((1r,3r)-3-(3-chloro-4-cyanophenoxy)-2,2,4,4-tetramethylcyclobutyl)-4-(4-((4-(2′-(2,6-dioxopiperidin-3-yl)-3′-oxospiro[cyclopropane-1,1′-isoindolin]-6′-yl)piperazin-1-yl)methyl)piperidin-1-yl)benzamide]",–,C (C < 50)
"CC(C)N(CC1CCN(c2cnc(C(=O)N[C@H]3CC[C@H](Oc4ccc(C#N)c(Cl)c4)CC3)cn2)CC1)[C@H]1C[C@H](Oc2ccc3c(c2)C(=O)N(C2CCC(=O)NC2=O)C32CC2)C1 (mixture of isomers) [compound 35, rac-N-((1r,4r)-4-(3-chloro-4-cyanophenoxy)cyclohexyl)-5-(4-((((1r,3r)-3-((2′-(2,6-dioxopiperidin-3-yl)-3′-oxospiro[cyclopropane-1,1′-isoindolin]-5′-yl)oxy)cyclobutyl)(isopropyl)amino)methyl)piperidin-1-yl)pyrazine-2-carboxamide]",–,C (C < 50)
"CC(C)N(CC1CCN(c2cnc(C(=O)N[C@H]3CC[C@H](Oc4ccc(C#N)c(Cl)c4)CC3)cn2)CC1)[C@H]1C[C@H](Oc2ccc3c(c2)C2(CC2)N(C2CCC(=O)NC2=O)C3=O)C1 (mixture of isomers) [compound 36, rac-N-((1r,4r)-4-(3-chloro-4-cyanophenoxy)cyclohexyl)-5-(4-((((1r,3r)-3-((2′-(2,6-dioxopiperidin-3-yl)-3′-oxospiro[cyclopropane-1,1′-isoindolin]-6′-yl)oxy)cyclobutyl)(isopropyl)amino)methyl)piperidin-1-yl)pyrazine-2-carboxamide]",–,C (C < 50)
"CC(C)N(CC1CCN(c2cnc(C(=O)N[C@H]3C(C)(C)[C@H](Oc4ccc(C#N)c(Cl)c4)C3(C)C)cn2)CC1)[C@H]1C[C@H](Oc2ccc3c(c2)C(=O)N(C2CCC(=O)NC2=O)C32CC2)C1 (mixture of isomers) [compound 37, rac-N-((1r,3r)-3-(3-chloro-4-cyanophenoxy)-2,2,4,4-tetramethylcyclobutyl)-5-(4-((((1r,3r)-3-((2′-(2,6-dioxopiperidin-3-yl)-3′-oxospiro[cyclopropane-1,1′-isoindolin]-5′-yl)oxy)cyclobutyl)(isopropyl)amino)methyl)piperidin-1-yl)pyrazine-2-carboxamide]",–,C (C < 50)
"CC(C)N(CC1CCN(c2cnc(C(=O)N[C@H]3C(C)(C)[C@H](Oc4ccc(C#N)c(Cl)c4)C3(C)C)cn2)CC1)[C@H]1C[C@H](Oc2ccc3c(c2)C2(CC2)N(C2CCC(=O)NC2=O)C3=O)C1 (mixture of isomers) [compound 38, rac-N-((1r,3r)-3-(3-chloro-4-cyanophenoxy)-2,2,4,4-tetramethylcyclobutyl)-5-(4-((((1r,3r)-3-((2′-(2,6-dioxopiperidin-3-yl)-3′-oxospiro[cyclopropane-1,1′-isoindolin]-6′-yl)oxy)cyclobutyl)(isopropyl)amino)methyl)piperidin-1-yl)pyrazine-2-carboxamide]",–,C (C < 50)
"CC1(C)[C@H](NC(=O)c2ccc(N3CCN(CCCCCOc4ccc5c(c4)CCN(C4CCC(=O)NC4=O)C5=O)CC3)nc2)C(C)(C)[C@H]1Oc1ccc(C#N)c(Cl)c1 (mixture of isomers) [compound 46, N-((1r,3r)-3-(3-chloro-4-cyanophenoxy)-2,2,4,4-tetramethylcyclobutyl)-6-(4-(5-(2-(2,6-dioxopiperidin-3-yl)-1-oxo-1,2,3,4-tetrahydroisoquinolin-6-yloxy)pentyl)piperazin-1-yl)nicotinamide]",< 1,A (A >= 75)
"CC1(C)[C@H](NC(=O)c2ccc(N3CCN(CCCCCOc4ccc5c(c4)CC(=O)N(C4CCC(=O)NC4=O)C5=O)CC3)nc2)C(C)(C)[C@H]1Oc1ccc(C#N)c(Cl)c1 (mixture of isomers) [compound 47, N-((1r,3r)-3-(3-chloro-4-cyanophenoxy)-2,2,4,4-tetramethylcyclobutyl)-6-(4-(5-((2-(2,6-dioxopiperidin-3-yl)-1,3-dioxo-1,2,3,4-tetrahydroisoquinolin-6-yl)oxy)pentyl)piperazin-1-yl)nicotinamide]",1 to 10,B (50 <= B < 75)
"CC1(C)[C@H](NC(=O)c2ccc(N3CCN(CCCCCOc4ccn5c(=O)n(C6CCC(=O)NC6=O)nc5c4)CC3)nc2)C(C)(C)[C@H]1Oc1ccc(C#N)c(Cl)c1 (mixture of isomers) [compound 48, N-((1r,3r)-3-(3-chloro-4-cyanophenoxy)-2,2,4,4-tetramethylcyclobutyl)-6-(4-(5-((2-(2,6-dioxopiperidin-3-yl)-3-oxo-2,3-dihydro-[1,2,4]triazolo[4,3-a]pyridin-7-yl)oxy)pentyl)piperazin-1-yl)nicotinamide]",< 1,B (50 <= B < 75)
"CC1(C)[C@H](NC(=O)c2ccc(N3CCN(CCCCCOc4ccc5nn(C6CCC(=O)NC6=O)c(=O)n5c4)CC3)nc2)C(C)(C)[C@H]1Oc1ccc(C#N)c(Cl)c1 (mixture of isomers) [compound 49, N-((1r,3r)-3-(3-chloro-4-cyanophenoxy)-2,2,4,4-tetramethylcyclobutyl)-6-(4-(5-((2-(2,6-dioxopiperidin-3-yl)-3-oxo-2,3-dihydro-[1,2,4]triazolo[4,3-a]pyridin-6-yl)oxy)pentyl)piperazin-1-yl)nicotinamide]",< 1,A (A >= 75)
"CC1(C)[C@H](NC(=O)c2ccc(N3CCC(CN4CCN(c5ccn6c(=O)n(C7CCC(=O)NC7=O)nc6c5)CC4)CC3)cc2)C(C)(C)[C@H]1Oc1ccc(C#N)c(Cl)c1 (mixture of isomers) [compound 50, N-((1r,3r)-3-(3-chloro-4-cyanophenoxy)-2,2,4,4-tetramethylcyclobutyl)-4-(4-((4-(2-(2,6-dioxopiperidin-3-yl)-3-oxo-2,3-dihydro-[1,2,4]triazolo[4,3-a]pyridin-7-yl)piperazin-1-yl)methyl)piperidin-1-yl)benzamide]",< 1,A (A >= 75)
"CC1(C)[C@H](NC(=O)c2ccc(N3CCC(CCN4CCN(c5cc6c(cn5)C(=O)N(C5CCC(=O)NC5=O)C6=O)CC4)CC3)cc2)C(C)(C)[C@H]1Oc1ccc(C#N)c(Cl)c1 (mixture of isomers) [compound 51, rac-N-((1r,3r)-3-(3-chloro-4-cyanophenoxy)-2,2,4,4-tetramethylcyclobutyl)-4-(4-(2-(4-(2-(2,6-dioxopiperidin-3-yl)-1,3-dioxo-2,3-dihydro-1H-pyrrolo[3,4-c]pyridin-6-yl)piperazin-1-yl)ethyl)piperidin-1-yl)benzamide]",< 1,A (A >= 75)
"CC1(C)[C@H](NC(=O)c2ccc(N3CCC(CCN4CCN(c5ncc6c(n5)C(=O)N(C5CCC(=O)NC5=O)C6=O)CC4)CC3)cc2)C(C)(C)[C@H]1Oc1ccc(C#N)c(Cl)c1 (mixture of isomers) [compound 52, (rac)-N-((1r,3r)-3-(3-chloro-4-cyanophenoxy)-2,2,4,4-tetramethylcyclobutyl)-4-(4-(2-(4-(6-(2,6-dioxopiperidin-3-yl)-5,7-dioxo-6,7-dihydro-5H-pyrrolo[3,4-d]pyrimidin-2-yl)piperazin-1-yl)ethyl)piperidin-1-yl)benzamide]",< 1,B (50 <= B < 75)
